Test: Solubility of dexmedetomidine in adhesives and solubility enhancers
Assay type: physicochemical

solubility of dexmedetomidine (in Duro-Tak 87-2979 (acid/hydroxyl functionalized acrylate adhesive)): less than 2%
solubility of dexmedetomidine (in Duro-Tak 387/87-2353 (acid functionalized acrylate adhesive)): 10-15%
solubility of dexmedetomidine (in hydroxyl functionalized acrylate polymer): less than 1%
solubility of dexmedetomidine (in lauryl lactate): 5 to 10%
solubility of dexmedetomidine (in levulinic acid): ~60%
solubility of dexmedetomidine (in oleic acid): ~40%
solubility of dexmedetomidine (in propylene glycolmonolaurate): 5 to 10%
SMILES: Cc1cccc([C@H](C)c2cnc[nH]2)c1C [dexmedetomidine, Dexmedetomidine]
